# Structures can show the parent of a compound that is named as a salt. Where two headings read alike, the source gives them in different places.
# Test system: Acinetobacter baumannii ATCC17961
# Experiment: Antimicrobial susceptibility testing: 90% growth inhibitory concentration (IC90) determination
# Type: cell-based
# Conditions: Iso-Sensitest broth, growth by OD 600 nm over 16 h, 35±2° C.
# Protocol: The in vitro antimicrobial activity of the compounds was determined according to the following procedure:
# The assay used a 10-points Iso-Sensitest broth medium to measure quantitatively the in vitro activity of the compounds against Acinetobacter baumannii ATCC17961.
# Stock compounds in DMSO were serially twofold diluted (e.g. range from 50 to 0.097 μM final concentration) in 384 wells microtiter plates and inoculated with 49 μl the bacterial suspension in Iso-Sensitest medium to have a final cell concentration of ˜5×10^(5) CFU/ml in a final volume/well of 50 ul/well. Microtiter plates were incubated at 35±2° C.
# Bacterial cell growth was determined with the measurement of optical density at λ=600 nm each 20 minutes over a time course of 16 h. Growth inhibition was calculated during the logarithmic growth of the bacterial cells with determination of the concentration inhibiting 50% (IC50) and 90% (IC90) of the growth.
# Table 1 provides the […] growth inhibitory concentrations (IC90) in micromoles per liter of the compounds of present invention obtained against the strain Acinetobacter baumannii ATCC17961.
# [1] = Acinetobacter baumannii ATCC17961, read-out: ATCC 17961 IC90
# [2] = Acinetobacter baumannii, ATCC17961, 16 h, read-out: ATCC 17961 IC90, Acinetobacter baumannii ATCC17961
SMILES,IC90 [1] [nM],further results
"Cn1c(-c2ccc(OC(F)F)c(F)c2F)cnc1C(=O)Nc1ccc(C(=O)N2CCN(C(=O)[C@H]3[C@@H]4C[N+](C)(CC(N)=O)C[C@@H]43)CC2)c(Cl)c1 (mixture of isomers) [Example C4, N-[4-[4-[(1R,5S)-3-(2-amino-2-oxo-ethyl)-3-methyl-3-azoniabi-cyclo[3.1.0]-hexane-6-carbonyl]-piperazine-1-carbonyl]-3-chloro-phenyl]-5-[4-(difluoro-methoxy)-2,3-difluoro-phen-yl]-1-methyl-imidazole-2-carboxamide; formate]",31,
"Cn1c(-c2ccc(OC(F)F)c(F)c2F)cnc1C(=O)Nc1ccc(C(=O)N2CCN(C(=O)C3CCN(C(=O)C[N+](C)(C)C)CC3)CC2)c(Cl)c1 [Example B14, [2-[4-[4-[2-chloro-4-[[5-[4-(difluoromethoxy)-2,3-difluoro-phenyl]-1-methyl-imidazole-2-carbonyl]amino]benzoyl]piperazine-1-carbonyl]-1-piperidyl]-2-oxo-ethyl]-trimethyl-ammonium; formate]",76,
"COc1ccc(-c2cnc(C(=O)Nc3ccc(C(=O)N[C@H]4[C@@H]5CN(C(=O)[C@@H]6C[C@@H](O)C[N+]6(C)C)C[C@@H]54)c(Cl)c3)n2C)c(F)c1F [Example B54, N-[3-chloro-4-[(exo)-3-[(2 S,4R)-4-hydroxy-1,1-dimethyl-pyrrolidin-1-ium-2-carbonyl]-3-azabicyclo[3.1.01 hexan-6-yl]carbamoyl]phenyl]-5-(2,3-difluoro-4-methoxy-phenyl)-1-methyl-imidazole-2-carboxamide formate]",350,
"Cn1c(-c2ccc(OCC#N)c(F)c2F)cnc1C(=O)Nc1ccc(C(=O)N2CCC(C(=O)N[C@H]3CC[N+](C)(C)C3)CC2)c(Cl)c1 [Example B24, (S)-3-(1-(2-chloro-4-(5-(4-(cyanomethoxy)-2,3-difluorophenyl)-1-methyl-1H-imidazole-2-carboxamido)benzoyl)piperidine-4-carboxamido)-1,1-dimethylpyrrolidin-1-ium formate]",120,
"COc1ccc(-c2cnc(C(=O)Nc3ccc(C(=O)N4C[C@@H]5CN(C(=O)[C@@H]6CC[N+](C)(C)C6)C[C@@H]5C4)c(Cl)c3)n2C)c(F)c1F [Example B18, N-[4-[(3aS,6aR)-5-[(3R)-1,1-dimethylpyrrolidin-1-ium-3-carbonyl]-1,3,3a,4,6,6a-hexahydropyrrolo[3,4-c]pyrrole-2-carbonyl]-3-chloro-phenyl]-5-(2,3-difluoro-4-methoxy-phenyl)-1-methyl-imidazole-2-carboxamide; formate]",300,
"Cn1c(-c2ccc(OCC#N)c(F)c2F)cnc1C(=O)Nc1ccc(C(=O)N2CCN(C(=O)CC[N+](C)(C)C)CC2)c(Cl)c1 [Example B9, [3-[4-[2-chloro-4-[[5-[4-(cyanomethoxy)-2,3-difluoro-phenyl]-1-methyl-imidazole-2-carbonyl]amino]benzoyl]piperazin-1-yl]-3-oxo-propyl]-trimethyl-ammonium; iodide]",56,
"Cn1c(-c2ccc(OC(F)F)c(F)c2F)cnc1C(=O)Nc1ccc(C(=O)N2CCN(C(=O)C3CC[N+](C)(CC4CNC4)CC3)CC2)c(F)c1 (stereo not shown) [Example C42, N-[4-[4-[1-(azet-idin-3-ylmethyl)-1-methyl-piper-idin-1-ium-4-carbonyl]piper-azine-1-carbon-yl]-3-fluoro-phenyl]-5-[4-(difluorometh-oxy)-2,3-difluoro-phenyl]-1-methyl-imidazole-2-car-boxamide; 2,2,2-trifluoroacetate; 2,2,2-trifluoro-acetic acid]",100,
"Cc1cc(NC(=O)c2ncc(-c3ccc(OCC#N)c(F)c3F)n2C)ccc1C(=O)N1CCN(C(=O)C[N+](C)(C)CC(N)=O)CC1 [Example B2, (2-amino-2-oxo-ethyl)-[2-[4-[4-[[5-[4-(cyanomethoxy)-2,3-difluoro-phenyl]-1-methyl-imidazole-2-carbonyl]amino]-2-methyl-benzoyl]piperazin-1-yl]-2-oxo-ethyl]-dimethyl-mmonium; formate]",230,
"COc1ccc(-c2cnc(C(=O)Nc3ccc(C(=O)N4CCN(C(=O)[C@@H]5C[C@@H](O)C[N+]5(C)C)CC4)c(Cl)c3)n2C)c(F)c1Cl [Example B48, 5-(3-chloro-2-fluoro-4-methoxy-phenyl)-N-[3-chloro-4-[4-[(2S,4R)-4-hydroxy-1,1-dimethyl-pyrrolidin-1-ium-2-carbonyl]piperazine-1-carbonyl]phenyl]-1-methyl-imidazole-2-carboxamide formate]",,IC90 [2]: 76 nM
"COc1ccc(-c2cnc(C(=O)Nc3ccc(C(=O)N4CCN(C(=O)C[N+]5(C)CCCC5)CC4)c(Cl)c3)n2C)c(F)c1F [Example C28, N-[3-chloro-4-[4-[2-(1-methylpyr-rolidin-1-ium-1-yl)acetyl]piper-azine-1-carbonyl]-phenyl]-5-(2,3-difluoro-4-meth-oxy-phenyl)-1-methyl-imidazole-2-carboxamide; formate]",130,
"Cn1c(-c2ccc(OCC#N)c(F)c2F)cnc1C(=O)Nc1ccc(C(=O)N[C@H]2C[C@@H](NC(=O)C[N+](C)(C)C)C2)c(Cl)c1 [Example A16, [2-[[3-[2-chloro-4-[[5-[4-(cyanomethoxy)-2,3-difluoro-phenyl]-1-methyl-imidazole-2-carbonyl]amino]benzoyl]amino]cyclobutyl]amino]-2-oxo-ethyl]-trimethyl-ammonium formate]",88,
"COc1ccc(-c2cnc(C(=O)Nc3ccc(C(=O)N4CCN(C(=O)C5C[C@H](O)C[N+]5(C)C)CC4)c(Cl)c3)n2C)c(F)c1F (stereo in doubt) [Example B37, N-[3-chloro-4-[4-[(2R,4S)-4-hydroxy-1,1-dimethyl-pyrrolidin-1-ium-2-carbonyl]piperazine-1-carbonyl]phenyl]-5-(2,3-difluoro-4-methoxy-phenyl)-1-methyl-imidazole-2-carboxamide; formate]",,"IC90 (read-out: ATCC 17961 IC90, Acinetobacter baumannii ATCC17961, formate): 190 nM"
"COc1ccc(-c2cnc(C(=O)Nc3ccc(C(=O)N4CCN(C(=O)[C@@H]5C[C@@H](O)C[N+]5(C)C)CC4)c(Cl)c3)n2C)c(F)c1C(F)(F)F [Example B52, N-[3-chloro-4-[4-[(2S,4R)-4-hydroxy-1,1-dimethyl-pyrrolidin-1-ium-2-carbonyl]piperazine-1-carbonyl]phenyl]-5-[2-fluoro-4-methoxy-3-(trifluoromethyl)phenyl]-1-methyl-imidazole-2-carboxamide; formate]",,IC90 [2]: 520 nM
"COc1ccc(-c2cnc(C(=O)Nc3ccc(C(=O)N4CCN(C(=O)C[N+]5(C)CCC(O)C5)CC4)c(Cl)c3)n2C)c(F)c1F (stereo not shown) [Example C29, N-[3-chloro-4-[4-[2-(3-hydroxy-1-methyl-pyrrolidin-1-ium-1-yl)acet-yl]piperazine-1-carbonyl]phenyl]-5-(2,3-difluoro-4-methoxy-phenyl)-1-methyl-imid-azole-2-carbox-amide; formate]",100,
"Cc1cc(NC(=O)c2ncc(-c3ccc(OCC#N)c(F)c3F)n2C)ccc1C(=O)N1CCN(C(=O)C2(O)CC[N+](C)(C)CC2)CC1 [Example B26, 4-(4-(4-(5-(4-(cyanomethoxy)-2,3-difluorophenyl)-1-methyl-1H-imidazole-2-carboxamido)-2-methylbenzoyl)piperazine-1-carbonyl)-4-hydroxy-1,1-dimethylpiperidin-1-ium formate]",540,
"Cc1cc(NC(=O)c2ncc(-c3ccc(OCC#N)c(F)c3F)n2C)ccc1C(=O)N1CCN(C(=O)N[C@H]2C[N+](C)(C)C[C@@H]2O)CC1 [Example B29, (3S,4S)-3-(4-(4-(5-(4-(cyanomethoxy)-2,3-difluorophenyl)-1-methyl-1H-imidazole-2-carboxamido)-2-methylbenzoyl)piperazine-1-carboxamido)-4-hydroxy-1,1-dimethylpyrrolidin-1-ium formate]",250,
"COc1ccc(-c2cnc(C(=O)Nc3ccc(C(=O)N4CCN(C(=O)CC5CC[N+](C)(C)C5)CC4)c(Cl)c3)n2C)c(F)c1F (stereo not shown) [Example B13, N-[3-chloro-4-[4-[2-(1,1-dimethylpyrrolidin-1-ium-3-yl)acetyl]piperazine-1-carbonyl]phenyl]-5-(2,3-difluoro-4-methoxy-phenyl)-1-methyl-imidazole-2-carboxamide; formate]",68,
"Cn1c(-c2ccc(OCC#N)c(F)c2F)cnc1C(=O)Nc1ccc(C(=O)N[C@H]2C[C@@H](NCC[N+](C)(C)C)C2)c(Cl)c1 [Example A17, 2-[[3-[[2-chloro-4-[[5-[4-(cyanomethoxy)-2,3-difluoro-phenyl]-1-methyl-imidazole-2-carbonyl]amino]benzoyl]amino]cyclobutyl]amino]ethyl-trimethyl-ammonium formate]",340,
"Cn1c(-c2ccc(OCC#N)c(F)c2F)cnc1C(=O)Nc1ccc(C(=O)NCCOCC[N+](C)(C)C)c(Cl)c1 [Example A15, 2-[2-[[2-chloro-4-[[5-[4-(cyanomethoxy)-2,3-difluoro-phenyl]-1-methyl-imidazole-2-carbonyl]amino]benzoyl]amino]ethoxy]ethyl-trimethyl-ammonium formate]",770,

# — US20240376073A1 (Hoffmann-La Roche Inc., priority 2021, published 2024)
